Values quoted from earlier work, collected in US20130079342A1, “HETEROCYCLIC COMPOUNDS AND THEIR USES” (priority 2011, published 2013).

Columns and labels:
[1] = tested on: rheumatoid arthritis model; conditions: in vivo
[2] = tested on: systemic lupus erythematosis model; conditions: in vivo
[3] = biological target: T1, p110δ (Homo sapiens, UniProt O00329)
T1 sequence (O00329 1-1044): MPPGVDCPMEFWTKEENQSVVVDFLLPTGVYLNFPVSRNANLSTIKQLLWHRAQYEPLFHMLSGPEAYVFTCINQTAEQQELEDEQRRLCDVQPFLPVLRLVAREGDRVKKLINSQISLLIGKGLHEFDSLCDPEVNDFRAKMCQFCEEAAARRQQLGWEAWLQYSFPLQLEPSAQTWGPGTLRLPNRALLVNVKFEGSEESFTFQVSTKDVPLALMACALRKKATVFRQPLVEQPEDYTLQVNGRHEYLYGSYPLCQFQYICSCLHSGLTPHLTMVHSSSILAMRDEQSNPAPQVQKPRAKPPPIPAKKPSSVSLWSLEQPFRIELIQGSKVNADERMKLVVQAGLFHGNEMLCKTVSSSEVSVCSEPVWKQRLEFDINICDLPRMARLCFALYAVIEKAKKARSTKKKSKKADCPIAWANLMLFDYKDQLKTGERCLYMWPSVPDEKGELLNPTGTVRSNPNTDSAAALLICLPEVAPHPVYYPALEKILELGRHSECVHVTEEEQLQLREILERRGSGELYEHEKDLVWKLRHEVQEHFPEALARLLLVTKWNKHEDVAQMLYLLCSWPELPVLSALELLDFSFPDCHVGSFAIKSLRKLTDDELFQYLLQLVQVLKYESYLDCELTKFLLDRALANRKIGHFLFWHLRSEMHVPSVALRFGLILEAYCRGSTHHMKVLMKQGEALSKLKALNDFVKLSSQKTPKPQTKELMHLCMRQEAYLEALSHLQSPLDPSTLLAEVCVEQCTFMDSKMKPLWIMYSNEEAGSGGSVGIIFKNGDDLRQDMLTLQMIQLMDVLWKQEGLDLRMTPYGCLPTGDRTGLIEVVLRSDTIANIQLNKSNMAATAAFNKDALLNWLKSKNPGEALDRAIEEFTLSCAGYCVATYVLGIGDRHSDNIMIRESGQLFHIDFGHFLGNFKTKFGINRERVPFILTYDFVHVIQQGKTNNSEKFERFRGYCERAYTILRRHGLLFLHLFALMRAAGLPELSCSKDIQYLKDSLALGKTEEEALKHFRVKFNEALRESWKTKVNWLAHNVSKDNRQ

[4] = tested on: ovalbumin-induced airway inflammation
[5] = tested on: protein kinases

| SMILES | efficacy in a mouse model of rheumatoid arthritis [1] | onset of disease in a model of systemic lupus erythematosis [2] | inhibition of p110δ [3] | inflammation and disease in a murine model of asthma [4] | activity against any protein kinases tested [5] |
| --- | --- | --- | --- | --- | --- |
| O=C1NC(=O)/C(=C\c2ccc3nccnc3c2)S1 [AS 605240] | efficacious | delay onset of disease | – | – | – |
| Cc1ccccc1-n1c(Cn2cnc3c(N)ncnc32)nc2cccc(C)c2c1=O [IC87114] | – | – | high nanomolar range (triple digit) | significantly ameliorate inflammation and disease | no activity |
